In paper PMC10782483, “Development of the High-Affinity Carborane-Based Cannabinoid Receptor Type 2 PET Ligand [^18F]LUZ5-d8” (Journal of Medicinal Chemistry, 2023):
Values joined by “and” are separate entries in the source; they are usually repeats but may differ in a detail not shown here. Equal entries are not always repeated. “Also recorded” adds a separate entry of the source. Where two headings read alike, the source gives them in different places.

Columns and labels:
human CB2R = biological target: T1, human CB2R (Homo sapiens, UniProt P34972); assay: competitive binding affinity assay, membrane homogenates of hCB2R CHO cells, radioligand [3H]WIN55212-2; conditions: hCB2R CHO membranes
T1 construct: expressed in transfected cells; host or cells: CHO cells (membrane homogenates)
T1 sequence (P34972 whole entry): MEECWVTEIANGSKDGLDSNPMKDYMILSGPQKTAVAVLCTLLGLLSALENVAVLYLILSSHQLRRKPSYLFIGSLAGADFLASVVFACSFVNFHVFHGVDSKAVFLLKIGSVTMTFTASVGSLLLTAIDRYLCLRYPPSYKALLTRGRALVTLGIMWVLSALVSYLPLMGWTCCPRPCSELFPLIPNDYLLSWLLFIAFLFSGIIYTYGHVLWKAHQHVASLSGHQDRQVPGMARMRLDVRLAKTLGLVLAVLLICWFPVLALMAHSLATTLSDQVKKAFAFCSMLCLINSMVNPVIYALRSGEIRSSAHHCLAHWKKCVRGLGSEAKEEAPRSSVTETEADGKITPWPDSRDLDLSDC
Method: Target compounds 9–11, 15, LUZ5, and 17 were evaluated in a competitive binding affinity assay using hCB2R Chinese hamster ovary (CHO) cells and the agonistic high-affinity CB2R radioligand [^3H]WIN55212-2 (Figure S96).
(§1) The in vitro binding affinity assays were performed with membrane homogenates from Chinese hamster ovary (CHO) cells stably transfected with the human CB2R according to a previously published protocol.[95] The screening for CB1R binding affinity determination was performed with membrane homogenates from CHO cells stably transfected with the human CB1R as described previously.[96]

[1] = chemical stability tests by 1H and 11B{1H} NMR spectroscopy in aqueous DMSO-d6; format: physicochemical; conditions: for chemical stability in aqueous DMSO-d6 (NMR), in words / stability in aqeous DMSO-d6 (1H, 11B{1H}-NMR) / stability versus binding affinity assay time frame: aqueous DMSO-d6; for stability versus binding affinity assay time frame: assay time 90 min
Method: A high chemical and metabolic stability of the compounds is required for biological evaluation and application in vivo. The method of choice for evaluating the chemical stability was ^1H and ^11B{^1H} NMR spectroscopy, with the latter being particularly suitable for recognizing deboronation. Since the in vitro binding assays are performed in aqueous media, the stability tests should be performed under similar conditions. However, due to the high hydrophobicity of the carborane moieties, target compounds 9–11 and 15–17 were not soluble in aqueous solution without the addition of dimethyl sulfoxide (DMSO). Since a maximum of 1% DMSO can be used in the in vitro binding assay, stability measurements were performed in aqueous DMSO-d6 to see especially if deboronation occurs in the presence of water. Approximately 10 mg of each compound (9–11 and 15–17) was dissolved in the deuterated NMR solvent and monitored via NMR spectroscopy in time intervals of a few minutes (after the addition of the solvent to the respective solid compound) to at least 23 days for the o- (9 and 15) and m-carborane derivatives (10 and LUZ5) and beyond one year for the p-carborane analogues (11 and 17) (Figures S68–S79).
Stability tests were performed with ^1H and ^11B{^1H} NMR spectroscopy. Approximately 10 mg of each compound was dissolved in aqueous DMSO-d6 and measured directly thereafter and at increasing time intervals from a few minutes to a couple of days or beyond a year.
The stability of LUZ5 was additionally investigated under the conditions described above, but in the presence of larger amounts of H2O or D2O. For this, LUZ5 was dissolved in DMSO-d6 (0.5 mL) and either H2O (0.1 mL) or D2O (0.1 mL) was added.

CB2R = conditions: reference compound; read-out: KiCB2R; cited from earlier work
[2] = cited from earlier work
[3] = rat, in vivo; cited from earlier work
[4] = tested on: mouse liver microsomes (MLMs); assay: in vitro metabolism with mouse liver microsomes and NADPH, HPLC-UV-MS; format: in vitro ADME; conditions: NADPH, similar conditions
Method: Each of the compounds was incubated with mouse liver microsomes (MLMs) in phosphate-buffered saline (PBS) in the presence of nicotinamide adenine dinucleotide phosphate (NADPH) for 30 and 60 min at 37 °C, according to a literature protocol.[81],[82] After the addition of cold acetonitrile, the obtained supernatants were analyzed by HPLC-UV-MS (exemplified chromatogram and spectrum in Figures S91 and S92). […] In addition, negative control samples without NADPH or without NADPH and MLM were prepared and analyzed for each target compound.
For in vitro evaluation of metabolites, the following instruments were used: BioShake iQ (QUANTIFOIL Instruments, Jena, Germany), Centrifuge 5424 (Eppendorf, Hamburg, Germany), UltiMate 3000 UHPLC System (Thermo Scientific, Germering, Germany) including a DAD detector (DAD-3000RS) coupled to an MSQ Plus single quadrupole mass spectrometer (Thermo Scientific, Austin, TX). […] In brief, each of the test compounds (dissolved in DMSO, final concentration of 10 μM, final DMSO percentage of 1%) and MLMs (final protein concentration of 1 mg/mL) in PBS (pH 7.4) were preincubated in PBS (pH 7.4) for 5 min at 37 °C. Similarly preincubated NADPH (final concentration of 2 mM) was added to start the incubation. […] The supernatants were stored at 4 °C until they were measured by HPLC-UV-MS. […]

human CB1R = biological target: T2, human CB1R (Homo sapiens, UniProt P21554); assay: CB1R binding affinity screening, membrane homogenates of CHO cells with human CB1R, radioligand [3H]SR141716A; conditions: human CB1R CHO membranes
T2 construct: expressed in transfected cells; host or cells: CHO cells (membrane homogenates)
T2 sequence (P21554 whole entry): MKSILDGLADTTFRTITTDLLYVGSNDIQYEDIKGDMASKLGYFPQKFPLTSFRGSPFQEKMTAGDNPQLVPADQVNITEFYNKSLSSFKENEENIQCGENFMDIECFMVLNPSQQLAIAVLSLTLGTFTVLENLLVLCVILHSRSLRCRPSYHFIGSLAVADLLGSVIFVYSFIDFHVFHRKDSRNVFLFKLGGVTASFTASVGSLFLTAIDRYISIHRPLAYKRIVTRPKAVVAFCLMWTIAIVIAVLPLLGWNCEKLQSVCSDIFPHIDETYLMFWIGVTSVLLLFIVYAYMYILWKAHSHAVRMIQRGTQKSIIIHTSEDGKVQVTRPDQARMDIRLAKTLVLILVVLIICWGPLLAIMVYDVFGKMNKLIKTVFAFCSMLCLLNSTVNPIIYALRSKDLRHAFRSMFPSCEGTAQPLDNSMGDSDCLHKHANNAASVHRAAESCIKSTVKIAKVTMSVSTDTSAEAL
Method: as §1

[5] = individual values behind the mean, read-out: KiCB2R individual values

Row | Molecule | Ki (human CB2R; mean, read-out: KiCB2R mean) | chemical stability in aqueous DMSO-d6 (NMR), in words [1] | stability in aqeous DMSO-d6 (1H, 11B{1H}-NMR) [1] | stability versus binding affinity assay time frame [1] | Ki (human CB2R; [5]) | also measured
1 | 1-(4-Fluorobutyl)-2-oxo-N-(1,2-dicarba-closo-dodecaboranyl)-1,2-dihydro-1,8-naphthyridine-3-carboxamide [Compound 9] | 40.8 nM | additional signals were visible already after 2 h | < 0.083 days | too low |  | 
2 | 1-(4-Fluorobutyl)-2-oxo-N-(1,7-dicarba-closo-dodecaboranyl)-1,2-dihydro-1,8-naphthyridine-3-carboxamide [Compound 10] | 35.4 nM |  | < 8 days | stability beyond the binding affinity assay time frame | 43.8 nM and 26.9 nM | 
3 | 1-(4-Fluorobutyl)-2-oxo-N-(1,7-dicarba-closo-dodecaboranyl)-1,2-dihydro-1,8-naphthyridine-3-carboxamide [Compound 11] | 3.9 nM | stable for more than one year; also recorded: good chemical stability | ? 491 d | stability beyond the binding affinity assay time frame | 2.77 nM and 5.01 nM | 
4 | O=C(NC12CC3CC(CC(C3)C1)C2)c1cc2cccnc2n(CCCCF)c1=O [LU13] |  |  |  |  |  | Ki (CB2R): 0.6 nM
5 | Cc1s/c(=N\C(=O)C2C(C)(C)C2(C)C)n(CCCC[18F])c1C [[^18F]3] |  |  |  |  |  | intact radioligand in brain ([2]; brain samples): 36%; intact radiotracer in plasma ([2]; mouse, in vivo): 7%
6 | Cc1s/c(=N\C(=O)C2C(C)(C)C2(C)C)n(CCOCC[18F])c1C [[^18F]4] |  |  |  |  |  | intact radiotracer in plasma [3]: 25%
7 | C[C@]12CC[C@H]3[C@@H](CCC4=CC(=O)CC[C@@]43C)[C@@H]1CC[C@@H]2O [testosterone] |  |  |  |  |  | conversion of positive control [4]: complete conversion
8 | (Z)-N-[3-(4-Fluorobutyl)-4,5-dimethylthiazole-2(3H)-ylidene]-(1,2-dicarba-closo-dodecaboranyl)-carboxamide [Compound 15] | 3.3 nM | good chemical stability | < 3 days | stability beyond the binding affinity assay time frame | 3.28 nM and 3.26 nM | 
9 | (Z)-N-[3-(4-Fluorobutyl)-4,5-dimethylthiazole-2(3H)-ylidene]-(1,7-dicarba-closo-dodecaboranyl)-carboxamide [LUZ5] | 0.8 nM |  | ? 23 d | stability beyond the binding affinity assay time frame |  | Ki (human CB1R): > 10000 nM; stable in DMSO-d6 with increased amounts of D2O ([1]; D2O in DMSO-d6 1:5 (v/v), 11B{1H} NMR): at least 8 days; stable in DMSO-d6 with increased amounts of H2O ([1]; H2O in DMSO-d6 1:5 (v/v), 11B{1H} NMR): at least 19 days
10 | (Z)-N-[3-(4-Fluorobutyl)-4,5-dimethylthiazole-2(3H)-ylidene]-(1,12-dicarba-closo-dodecaboranyl)-carboxamide [Compound 17] | 1.3 nM | stable for more than one year; also recorded: good chemical stability | ? 491 d | stability beyond the binding affinity assay time frame | 1.36 nM and 1.17 nM | 
